These are literature values, as cited in patent publication US20170172905A1, “AGENT FOR TEMPORARILY RESHAPING KERATIN-CONTAINING FIBERS COMPRISING PRESERVATIVE” (Henkel AG & Co. KGaA, priority 2015, published 2017).

Structures are written as SMILES.

For the compound `CCCCC(CC)CN1CN(CC(CC)CCCC)CC(C)(N)C1` (stereo not shown) [hexetidine, 5-amino-1,3-bis(2-ethylhexal)hexahydro-5-methylpyrimidine], the logP value was 5.25.
